Experiments:
Type in all cases: physicochemical
[1] = Electron spin relaxation rates (radical concentration dependent) from CW ESR spectra and DNP data; conditions: water (isotonic saline)
Procedure: (§1) The following four water soluble, single ESR line trityls were investigated by NMRD, Dynamic Nuclear Polarisation (DNP) and ESR (Examples 1-4).
Electron spin relaxation rates were measured by analysis of CW ESR spectra and DNP data at 23° C. and 37° C. in water, isotonic saline, plasma and blood for the deuterated hydroxy trityl and in water and isotonic saline for the perdeuterated and symmetric trityl.

[2] = Relaxivity from NMRD profiles in water, plasma and blood; conditions: water
Procedure: as §1
(§2) The relaxivity and DNP enhancement data were measured in water, plasma and blood at 23° C. and 37° C. The results are set out in Tables 1 and 2.

[3] = Oximetric calibration by X-band ESR (9 GHz), oxygen broadening; conditions: plasma, 37° C., X-band 9 GHz
Procedure: Oximetric calibrations were made for the perdeuterated trityl and the non-deuterated hydroxy trityl in water and plasma at 37° C. with ESR in the X-band at 9 GHz. The experiment was performed on a Varian X-band spectrometer with temperature controller. A thermocouple was placed near the microwave cavity for accurate determination of the temperature. The samples were placed in thin wall teflon capillaries for rapid equilibration with a flowing gas mixture. A Sensormedics Oxygen Analyzer OM-11 was used to determine the oxygen percentage in the flowing gas. The gas pressure for temperature control and oxygenation was maintained at 20 psi. The linewidth and the saturation of the electron spin resonance was measured. Fremys salt was chosen as a B1 calibration standard and a conversion factor of 38.6±0.2 mG/mW was obtained.
The results are shown in FIGS. 2 and 3 which give the linewidth as a function of oxygen concentration. The oxygen broadening of the perdeuterated trityl in plasma at 37° C. is 583 mG/mMo2 .

[4] = DNP (Overhauser) enhancement and DNP-curve relaxivity at infinite concentration and power; conditions: water
Description: The calibration data are generated by determining Overhauser enhancement values for the radical in the selected body fluid, at the selected temperature and at a range of oxygen (and preferably also radical) concentrations. The intrinsic esr relaxation times for the radical can be determined, under the same conditions, using a conventional esr spectrometer equipped with a temperature controller, with oxygen concentration being determined using the method of Ravin et al J. Appl. Physiol. 18:784-790(1964), a method known to produce accurate and reproducible results.
as §1, §2

2(3γe T1e)^-1, concentration dependent relaxation rate (peak-to-peak) ([1]; 23° C.): 10.6 ± 0.8 mg/mM | 2(3γe T2e)^-1, concentration dependent relaxation rate (peak-to-peak) ([1]; 23° C.): 24.3 ± 0.8 mg/mM | 2(3γe T1e)^-1, concentration dependent relaxation rate (peak-to-peak) ([1]; 37° C.): 12.9 ± 0.3 mg/mM | 2(3γe T2e)^-1, concentration dependent relaxation rate (peak-to-peak) ([1]; 37° C.): 28.2 ± 1.2 mg/mM | Relaxivity ([2]; 23° C.): 0.19 mM⁻¹ s⁻¹ | Relaxivity ([2]; 37° C.): 0.14 mM⁻¹ s⁻¹ | oxygen broadening [3]: 583 mG/mMo2 | A. (enhancement at infinite concentration and power) [4]: 267
Substance: Bis-(8-sodium carboxylate-2,2,6,6-tetrakis-(^2 H3 methyl)-benzo[1,2-d:4,5-d']-bis(1,3)-dithiole-4-yl)-mono-(8-sodium carboxylate-2,2,6,6-tetrakis-(^2 H3 -methyl)-benzo[1,2-d:4,5-d']-bis(1,3)-dioxole-4-yl) methyl [perdeuterated trityl]

Source: patent publication US6256527A, “Method for determining oxygen concentration” (Nycomed Imaging AS, priority 1995, dated 2001)
